pIC50: −log10 of the molar value. Read-outs that look alike come from different tables or passages of the source.
Columns and labels:
[1] = system: T. gondii β-gal tachyzoites; design: method as in PMID 34144354, PMID 32347622, doi:10.3390/inorganics9080059, PMID 36500266; conditions: cited from earlier work; for T. Gondii β-gal Growth (%): tachyzoites in HFF, vs 0.1% DMSO control = 100%
[2] = system: human foreskin fibroblasts (HFF); design: method as in PMID 34144354, PMID 32347622, doi:10.3390/inorganics9080059, PMID 36500266; conditions: cited from earlier work; for HFF Viability (%): non-infected HFF, vs 0.1% DMSO control = 100%; for HFF Viability at 2.5 µM (%): control 0.25% DMSO = 100%
[3] = system: T. gondii β-gal tachyzoites; assay: In vitro proliferation of T. gondii β-gal tachyzoites in HFF, β-galactosidase colorimetric test (primary screening and IC50); format: cell-based, Toxoplasma gondii; conditions: for T. Gondii β-gal Growth (%): 72 h, tachyzoites in HFF, vs 0.1% DMSO control = 100%; for pIC50: eight serial concentrations 7 nM to 1 µM
Protocol: In a primary screening, each compound was evaluated at two concentrations 0.1 and 1 µM and added to the media prior to the infection as previously described. Control non-infected non-treated HFF cultures and T. gondii β-gal infected but not-treated cultures were cultivated in complete medium containing 0.01 or 0.1% DMSO. The 96-well plates were incubated for 72 h at 37 °C/5% CO2 as previously described.
For the IC50 determination on T. gondii β-gal, eight serial concentrations ranging from 7 nM to 1 μM were tested for each selected compound as previously described and the β-galactosidase assay was performed as reported. Briefly, infected HFF cultures in 96-well plates were lysed with PBS containing 0.05% Triton X-100. Then the substrate chlorophenolred-β-D-galactopyranoside (CPRG; Roche Diagnostics, Rotkreuz, Switzerland) was added in a final concentration of 0.5 mM. Absorption was measured at 570 nm wavelength using an EnSpire® multimode plate reader (PerkinElmer, Inc., Waltham, MA, USA).

[4] = system: human foreskin fibroblasts (HFF); assay: in vitro
Protocol: The viability of treated HFF was measured by the alamarBlue metabolic assay, and the proliferation of T. gondii β-gal was quantified by the β-galactosidase colorimetric test. In both cases, results are expressed as percentage (%) compared to control parasitic and host cells treated with 0.1% DMSO for which proliferation and viability were set to 100% (Table 1).
All tissue culture media were purchased from Gibco-BRL, and biochemical agents from Sigma-Aldrich. […] Transgenic T. gondii β-gal tachyzoites (expressing the β-galactosidase gene from Escherichia coli) from RH strain were kindly provided by Prof.
The screening sequence for the compounds was described in previous reports. All compounds were prepared as 1 mM stock solutions from powder in dimethyl sulfoxide (DMSO, Sigma, St. Louis, MO, USA). For in vitro activity and cytotoxicity assays, HFF were seeded at 5 × 10^3/well in 96 well plates and allowed to grow to confluence in complete culture medium at 37 °C and 5% CO2.
All calculations were performed using the corresponding software tool contained in the Excel software package (Microsoft, Redmond, WA, USA). […] Then the medium was removed, the plates were washed once with PBS and 200 μL of resazurin (1:200 dilution in PBS) were added to each well. […] Fluorescence was measured at two different time points: T0 as starting timepoint and T5h as at 5 h later. Relative fluorescence units were calculated from time points with linear increases.

[5] = Stability in DMSO-d6 followed by 1H NMR; conditions: 25 °C, 5 min and more than 1 month after sample preparation

Row | Compound | T. Gondii β-gal Growth (%) ([1]; 0.1 µM) | T. Gondii β-gal Growth (%) ([1]; 1 µM) | pIC50 [1] | HFF Viability (%) ([2]; 0.1 µM) | HFF Viability (%) ([2]; 1 µM) | HFF Viability at 2.5 µM (%) [2] [%] | T. Gondii β-gal Growth (%) ([3]; 0.1 µM) | T. Gondii β-gal Growth (%) ([3]; 1 µM) | pIC50 [3] | HFF Viability (%) ([4]; 0.1 µM) | HFF Viability (%) ([4]; 1 µM) | HFF Viability at 2.5 µM (%) [4] [%] | Stability in DMSO-d6 (1H NMR spectra) [5] | IC50 fold lower compared to pyrimethamine ([3]; T. gondii β-gal, pyrimethamine IC50 = 0.326 µM) [fold]
1 | CC(C)(C)c1ccc(C[S-])cc1.CC(C)(C)c1ccc(C[S-])cc1.Cc1ccc(C(C)C)cc1.Cc1ccc(C(C)C)cc1.Oc1ccc([S-])cc1.[Cl-].[Ru+2].[Ru+2] [Compound 2] | 66 ± 14 | 2 ± 0 | 6.93 | 76 ± 6 | 46 ± 6 | 56 |  |  |  |  |  |  |  | 
2 | CC(C)(C)c1ccc(C[S+]2[Ru-]3[S+](Cc4ccc(C(C)(C)C)cc4)[Ru-]2[S+]3c2ccc(N)cc2)cc1.Cc1ccc(C(C)C)cc1.Cc1ccc(C(C)C)cc1.[Cl-] (stereo not shown) [Compound 3] | 57 ± 1 | 2 ± 0 | 6.82 | 74 ± 2 | 48 ± 1 | 51 |  |  |  |  |  |  |  | 
3 | CC(C)(C)c1ccc(C[S-])cc1.CC(C)(C)c1ccc(C[S-])cc1.Cc1ccc(C(C)C)cc1.Cc1ccc(C(C)C)cc1.O=C(O)Cc1ccc([S-])cc1.[Cl-].[Ru+2].[Ru+2] [Compound 4] | 114 ± 2 | 110 ± 2 |  | 91 ± 4 | 73 ± 1 |  |  |  |  |  |  |  |  | 
4 | CC(C)(C)c1ccc(C[S+]2[Ru-]3[S+](Cc4ccc(C(C)(C)C)cc4)[Ru-]2[S+]3c2ccccc2CO)cc1.Cc1ccc(C(C)C)cc1.Cc1ccc(C(C)C)cc1.[Cl-] (stereo not shown) [Compound 5] | 2 ± 0 | 1 ± 0 | 7.42 | 80 ± 1 | 69 ± 6 | 4 |  |  |  |  |  |  |  | 
5 | C#CCCCC(=O)Oc1ccc([S-])cc1.CC(C)(C)c1ccc(C[S-])cc1.CC(C)(C)c1ccc(C[S-])cc1.Cc1ccc(C(C)C)cc1.Cc1ccc(C(C)C)cc1.[Cl-].[Ru+2].[Ru+2] [Compound 6] |  |  |  |  |  |  | 4 ± 0 | 0 ± 0 | 7.64 |  |  |  |  | 
6 | C#CCCCC(=O)Nc1ccc([S+]2[Ru-]3[S+](Cc4ccc(C(C)(C)C)cc4)[Ru-]2[S+]3Cc2ccc(C(C)(C)C)cc2)cc1.Cc1ccc(C(C)C)cc1.Cc1ccc(C(C)C)cc1.[Cl-] (stereo not shown) [Compound 7] | 21 ± 2 | 0 ± 0 | 7.42 |  |  |  |  |  |  |  |  |  |  | 
7 | C#CCNC(=O)Cc1ccc([S-])cc1.CC(C)(C)c1ccc(C[S-])cc1.CC(C)(C)c1ccc(C[S-])cc1.Cc1ccc(C(C)C)cc1.Cc1ccc(C(C)C)cc1.[Cl-].[Ru+2].[Ru+2] [Compound 8] | 52 ± 13 | 3 ± 1 |  | 71 ± 2 | 46 ± 6 |  |  |  |  |  |  |  |  | 
8 | CC(C)(C)c1ccc(C[S+]2[Ru-]3[S+](Cc4ccc(C(C)(C)C)cc4)[Ru-]2[S+]3c2ccccc2CN=[N+]=[N-])cc1.Cc1ccc(C(C)C)cc1.Cc1ccc(C(C)C)cc1.[Cl-] (stereo not shown) [Compound 9] | 9 ± 1 | 1 ± 1 | 7.32 | 96 ± 1 | 64 ± 1 | 11 |  |  |  |  |  |  |  | 
9 | CC(=O)OC[C@H]1O[C@@H](n2cc(CCCC(=O)Oc3ccc([S-])cc3)nn2)[C@H](OC(C)=O)[C@@H](OC(C)=O)[C@@H]1OC(C)=O.CC(C)(C)c1ccc(C[S-])cc1.CC(C)(C)c1ccc(C[S-])cc1.Cc1ccc(C(C)C)cc1.Cc1ccc(C(C)C)cc1.[Cl-].[Ru+2].[Ru+2] [Compound 19] |  |  |  |  |  |  | 9 ± 1 | 0 ± 0 | 7.74 | 102 ± 1 | 97 ± 1 | 29 |  | 
10 | CC(=O)OC[C@H]1O[C@@H](n2cc(CCCC(=O)Nc3ccc([S-])cc3)nn2)[C@H](OC(C)=O)[C@@H](OC(C)=O)[C@@H]1OC(C)=O.CC(C)(C)c1ccc(C[S-])cc1.CC(C)(C)c1ccc(C[S-])cc1.Cc1ccc(C(C)C)cc1.Cc1ccc(C(C)C)cc1.[Cl-].[Ru+2].[Ru+2] [Compound 20] |  |  |  |  |  |  | 100 ± 1 | 1 ± 2 | 6.96 | 98 ± 1 | 99 ± 0 | 77 | no significant modifications | 
11 | CC(=O)OC[C@H]1O[C@@H](OCCn2cc(CCCC(=O)Nc3ccc([S-])cc3)nn2)[C@H](OC(C)=O)[C@@H](OC(C)=O)[C@@H]1OC(C)=O.CC(C)(C)c1ccc(C[S-])cc1.CC(C)(C)c1ccc(C[S-])cc1.Cc1ccc(C(C)C)cc1.Cc1ccc(C(C)C)cc1.[Cl-].[Ru+2].[Ru+2] [Compound 21] |  |  |  |  |  |  | 87 ± 1 | 1 ± 0 | 7.06 | 100 ± 1 | 101 ± 0 |  |  | 
12 | CC(=O)OC[C@H]1O[C@@H](OCCn2cc(CCCC(=O)Nc3ccc([S-])cc3)nn2)[C@H](OC(C)=O)[C@@H](OC(C)=O)[C@H]1OC(C)=O.CC(C)(C)c1ccc(C[S-])cc1.CC(C)(C)c1ccc(C[S-])cc1.Cc1ccc(C(C)C)cc1.Cc1ccc(C(C)C)cc1.[Cl-].[Ru+2].[Ru+2] [Compound 22] |  |  |  |  |  |  | 73 ± 1 | 2 ± 0 | 6.53 | 100 ± 0 | 101 ± 0 | 73 | no significant modifications | 
13 | CC(=O)OC[C@H]1O[C@@H](OCCCn2cc(CCCC(=O)Nc3ccc([S-])cc3)nn2)[C@H](OC(C)=O)[C@@H](OC(C)=O)[C@H]1OC(C)=O.CC(C)(C)c1ccc(C[S-])cc1.CC(C)(C)c1ccc(C[S-])cc1.Cc1ccc(C(C)C)cc1.Cc1ccc(C(C)C)cc1.[Cl-].[Ru+2].[Ru+2] [Compound 23] |  |  |  |  |  |  | 85 ± 1 | 1 ± 0 | 7.49 | 99 ± 1 | 101 ± 1 | 92 |  | 10
14 | CC(=O)OC[C@H]1O[C@@H](OCCCc2cn(Cc3ccccc3[S-])nn2)[C@H](OC(C)=O)[C@@H](OC(C)=O)[C@@H]1OC(C)=O.CC(C)(C)c1ccc(C[S-])cc1.CC(C)(C)c1ccc(C[S-])cc1.Cc1ccc(C(C)C)cc1.Cc1ccc(C(C)C)cc1.[Cl-].[Ru+2].[Ru+2] [Compound 25] |  |  |  |  |  |  | 75 ± 2 | 27 ± 0 |  | 98 ± 1 | 97 ± 1 |  | no significant modifications | 
15 | CCc1nc(N)nc(N)c1-c1ccc(Cl)cc1 [Pyrimethamine, reference compound] |  |  | 6.49 |  |  |  |  |  |  |  |  |  |  | 

Source: publication PMC9865825, “Synthesis and Antiparasitic Activity of New Trithiolato-Bridged Dinuclear Ruthenium(II)-arene-carbohydrate Conjugates” (Molecules, 2023)
